Assay results: patent publication US20260285853A1, “COMPOUNDS AND METHODS FOR MODULATING SPLICING” (REMIX THERAPEUTICS INC., priority 2023, published 2026)
Like-named read-outs stand apart in the source and are kept apart here.

Assays:
Assay type in all cases: cell-based
[1] = test system: SH-SY5Y (human neuroblastoma) cells; assay: Cell viability, Cell Titer Glo 2.0 assay; conditions: read-out: Viability SHSY5Y.3 GI50
Outline: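 CellTiter-Glo 2.0 luminescence read-out after 72 h compound exposure (37 °C, 5% CO2); medium-only wells as blank. DMSO 0.1% final.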

[2] = test system: MYB mRNA; assay: Gene panel canonical junction qPCR assay, decrease in CJ mRNA, Table 3
Outline: (§1)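 Cells: A673 or K562; 24 h compound exposure, 37 °C, 5% CO2; 11-pt 3-fold series from 10 uM final; DMSO ≤0.25%. Lysate → cDNA → qPCR with junction-spanning primers/probe for CJ transcript. ΔCt vs housekeeper, ΔΔCt vs DMSO, 2^(−ΔΔCt), % response, 4PL → IC50.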

[3] = test system: HTT mRNA; assay: as above
Outline: as §1

[4] = test system: MYB mRNA; assay: Splicing RT-qPCR assay (THP), Table 2A
[5] = test system: HTT mRNA; assay: Splicing RT-qPCR assay (THP), Table 2A
[6] = decrease in canonical junction (CJ) mRNA, gene panel qPCR, Table 3
[7] = Table 2A (THP), AJ mRNA increase, read-out: MYB AJ (increase in alternative junction mRNA, AC50)
[8] = Table 2A (THP), CJ mRNA decrease, read-out: MYB CJ (decrease in canonical junction mRNA, IC50)
[9] = Table 2A (THP), AJ mRNA increase, read-out: HTT AJ (increase in alternative junction mRNA, AC50)
[10] = Table 2A (THP), CJ mRNA decrease, read-out: HTT CJ (decrease in canonical junction mRNA, IC50)
[11] = Table 2A, THP, MYB alternative junction (AJ) mRNA, read-out: MYB AJ (AC50, increase in alternative junction mRNA)
[12] = Table 2A, THP, MYB canonical junction (CJ) mRNA, read-out: MYB CJ (IC50, decrease in canonical junction mRNA)
[13] = Table 2A, THP, HTT alternative junction (AJ) mRNA, read-out: HTT AJ (AC50, increase in alternative junction mRNA)
[14] = Table 2A, THP, HTT canonical junction (CJ) mRNA, read-out: HTT CJ (IC50, decrease in canonical junction mRNA)
[15] = decrease in CJ mRNA levels, canonical junction qPCR, gene panel

Row | GI50 [1] [µM] | IC50 [2, 6] [µM] | IC50 [3, 6] [µM] | IC50 [4, 8] [µM] | IC50 [5, 10] [µM] | IC50 [4, 12] [µM] | IC50 [5, 14] [µM] | IC50 [2, 15] [µM] | IC50 [3, 15] [µM] | Compound | AC50 [4, 7] [µM] | AC50 [5, 9] [µM] | AC50 [4, 11] [µM] | AC50 [5, 13] [µM]
1 | > 10 | > 10 | > 10 | > 10 | > 10 | – | – | – | – | CCNCC1CN(c2ccc(C(=O)Nc3cn4cc(C)nc(C)c4n3)c3nn(C)cc23)C1 [Compound 494, N-(6,8-dimethylimidazo[1,2-a]-pyrazin-2-yl)-4-[3-(ethylaminomethyl)azetidin-1-yl]-2-methyl-indazole-7-carboxamide] | > 10 | > 10 | – | –
2 | 1 to 10 | 0.1 to 1 | > 10 | – | – | 0.1 to 1 | > 10 | – | – | CCNC1CCN(c2ccc(C(=O)Nc3cc4cn(C)nc4cc3OC)c3nn(C)cc23)CC1C (stereo not shown) [Compound 605] | – | – | 0.1 to 1 | 1 to 10
3 | > 10 | – | – | – | – | > 10 | > 10 | > 10 | > 10 | Cc1cn2cc(NC(=O)c3ccc(N4CCC(NC5CC5)CC4)c4cn(C)nc34)nc2c(CN2CCCS2(=O)=O)n1 [Compound 774, 4-[4-(cyclopropylamino)-1-piperidyl]-N-[8-[(1,1-dioxo-1,2-thiazolidin-2-yl)methyl]-6-methyl-imidazo[1,2-a]pyrazin-2-yl]-2-methyl-indazole-7-carboxamide] | – | – | > 10 | > 10
4 | > 10 | – | – | – | – | 0.1 to 1 | > 10 | 0.1 to 1 | > 10 | CC(=O)NCc1cc(NC(=O)c2ccc(N3CCC(NC4CC4)CC3)c3cn(C)nc23)cc2cn(C)nc12 [Compound 779] | – | – | 0.1 to 1 | > 10
5 | > 10 | > 10 | > 10 | > 10 | > 10 | – | – | – | – | Cn1cc2c(N3CCC(NC4CC4)CC3)cc(F)c(C(=O)Nc3ccnnc3O)c2n1 [Compound 420, 4-[4-(cyclopropylamino)-1-piperidyl]-6-fluoro-N-(3-hydroxypyridazin-4-yl)-2-methyl-indazole-7-carboxamide] | > 10 | > 10 | – | –
6 | 1 to 10 | > 10 | > 10 | > 10 | > 10 | – | – | – | – | Cc1cc2oc(NC(=O)c3c(F)cc(N4CCC(NC5CC5)CC4)c4cn(C)nc34)cc2c(C)n1 [Compound 491, 4-[4-(cyclopropylamino)-1-piperidyl]-N-(4,6-dimethyl-furo[3,2-c]pyridin-2-yl)-6-fluoro-2-methyl-indazole-7-carboxamide] | > 10 | > 10 | – | –
7 | 0.1 to 1 | – | – | – | – | < 0.1 | < 0.1 | < 0.1 | < 0.1 | CNCC1CN(c2ccc(C(=O)Nc3cc(F)c4nn(C)cc4c3)c3nc(OC)sc23)C1 [Compound 750] | – | – | < 0.1 | 0.1 to 1
8 | 0.1 to 1 | 0.1 to 1 | 0.1 to 1 | 0.1 to 1 | 0.1 to 1 | – | – | – | – | CCNC1CCN(c2ccc(C(=O)Nc3cc(CC(=O)O)c4nc(C)cn4c3)c3nn(C)cc23)CC1 [Compound 339, 2-[6-[[4-[4-(ethylamino)-1-piperidyl]-2-methyl-indazole-7-carbonyl]amino]-2-methyl-imidazo[1,2-a]-pyridin-8-yl]acetic acid] | 0.1 to 1 | 0.1 to 1 | – | –
9 | 0.1 to 1 | < 0.1 | 1 to 10 | < 0.1 | 1 to 10 | – | – | – | – | Cc1cn2cc(NC(=O)c3ccc(N4CCC(NC5(CF)CC5)CC4)c4cn(C)nc34)cc(F)c2n1 [Compound 378, 4-[4-[[1-(fluoromethyl)cyclopropyl]amino]-1-piperidyl]-N-(8-fluoro-2-methyl-imidazo[1,2-a]pyridin-6-yl)-2-methyl-indazole-7-carboxamide] | < 0.1 | 1 to 10 | – | –
10 | 0.1 to 1 | – | – | – | – | < 0.1 | 1 to 10 | < 0.1 | 1 to 10 | COc1nc2c(C(=O)Nc3cc(C)c4nc(C)cn4n3)ccc(N3C[C@H](C)N[C@@H](C)C3)c2s1 [Compound 739, N-(2,8-dimethylimidazo[1,2-b]pyridazin-6-yl)-7-[(3S,5S)-3,5-dimethylpiperazin-1-yl]-2-methoxy-1,3-benzothiazole-4-carboxamide] | – | – | < 0.1 | 0.1 to 1
11 | 1 to 10 | – | – | – | – | 0.1 to 1 | 1 to 10 | 0.1 to 1 | 1 to 10 | COc1cc2nn(C)cc2cc1NC(=O)c1ccc(N2CCC(NC3CC3)CC2)c2cc(C)nn12 [Compound 619, 4-[4-(cyclopropylamino)-1-piperidyl]-N-(6-methoxy-2-methyl-indazol-5-y1)-2-methyl-pyrazolo[1,5-a]-pyridine-7-carboxamide] | – | – | 0.1 to 1 | 1 to 10
12 | > 10 | – | – | – | – | > 10 | > 10 | > 10 | > 10 | Cc1cn2cc(NC(=O)c3ccc(N4CCC(NC5CC5)CC4)c4cn(C)nc34)nc2c(Cn2cnc3c(N)ncnc32)n1 [Compound 830] | – | – | > 10 | > 10
13 | 0.1 to 1 | 0.1 to 1 | > 10 | 0.1 to 1 | > 10 | – | – | – | – | Cc1cn2cc(NC(=O)c3c(F)cc(N4CCC(NC5CC5)CC4)c4cn(C)nc34)nc2c(C)n1 [Compound 334, 4-(4-(cyclopropylamino)-piperidin-1-yl)-N-(6,8-dimethyl-imidazo[1,2-a]pyrazin-2-y1)-6-fluoro-2-methyl-2H-indazole-7-carboxamide bis(2,2,2-trifluoroacetate)] | < 0.1 | 1 to 10 | – | –
14 | 1 to 10 | 1 to 10 | 1 to 10 | 1 to 10 | 1 to 10 | – | – | – | – | COc1cc2nn(C)cc2cc1NC(=O)c1ccc(N2CC3(CCNCC3)C2)c2cn(C)nc12 [Compound 507] | 0.1 to 1 | 1 to 10 | – | –
15 | 0.1 to 1 | – | – | – | – | > 10 | > 10 | > 10 | > 10 | Cc1cn2nc(NC(=O)c3ccc(N4CCC(NC5CC5)CC4)c4cn(C)nc34)cc(CN)c2n1 [Compound 870] | – | – | > 10 | > 10
16 | 0.1 to 1 | > 10 | > 10 | > 10 | > 10 | – | – | – | – | Cc1cn2cc(NC(=O)c3c(F)cc(NCC4CCNCC4)c4cn(C)nc34)nc2c(C)n1 [Compound 465, N-(6,8-dimethylimidazo[1,2-a]pyrazin-2-yl)-6-fluoro-2-methyl-4-(4-piperidylmethylamino)indazole-7-carboxamide] | > 10 | > 10 | – | –
17 | 1 to 10 | – | – | – | – | > 10 | > 10 | > 10 | > 10 | COc1nc2c(C(=O)Nc3ccc4nn(C)cc4c3C(C)=O)ccc(N3C[C@H](C)N[C@@H](C)C3)c2s1 [Compound 808] | – | – | > 10 | 1 to 10
18 | > 10 | > 10 | > 10 | > 10 | > 10 | – | – | – | – | Cc1cn2cc(NC(=O)c3ccc(N4CC5(CCNCC5)C4)c4cn(C)nc34)nc2c(C)n1 [Compound 562] | > 10 | > 10 | – | –
19 | > 10 | 0.1 to 1 | 1 to 10 | 0.1 to 1 | 1 to 10 | – | – | – | – | Cc1cn2cc(NC(=O)c3c(F)cc(N4CCC(NC5CC5)CC4)c4cn(C)nc34)cc(Oc3cccnn3)c2n1 [Compound 409] | 1 to 10 | > 10 | – | –
20 | 1 to 10 | > 10 | > 10 | > 10 | > 10 | – | – | – | – | Cc1cn2cc(NC(=O)c3ccc(N4CCC(NC5CC5)CC4)c4cn(C)nc34)c(F)c2c(C)n1 [Compound 478, 4-[4-(cyclopropyl-amino)-1-piperidyl]-N-(8-fluoro-1,3-dimethyl-pyrrolo[1,2-a]-pyrazin-7-yl)-2-methyl-indazole-7-carboxamide] | > 10 | > 10 | – | –
21 | < 0.1 | – | – | – | – | < 0.1 | 0.1 to 1 | < 0.1 | 0.1 to 1 | COc1nc2c(C(=O)Nc3cc(F)c4nn(C)cc4c3)ccc(N3C[C@@H](C)N[C@@H](C)C3)c2s1 [Compound 720] | – | – | < 0.1 | 0.1 to 1
22 | 1 to 10 | < 0.1 | > 10 | < 0.1 | > 10 | – | – | – | – | COc1cc2nc(CF)cn2cc1NC(=O)c1c(F)cc(N2CCC(NC3CC3)CC2)c2cn(C)nc12 [Compound 407, [cyclopropyl-[1-[6-fluoro-7-[[2-(fluoromethyl)-7-methoxy-imidazo[1,2-a]-pyridin-6-yl]carbamoyl]-2-methyl-indazol-4-y1]-4-piperidyl]amino] 2,2,2-trifluoroacetate] | < 0.1 | > 10 | – | –
